Entries after “also recorded” stand apart in the source; their conditions may differ.
Experiments:
[1] = PBPK model simulation of maribavir alone; parameters: species or system human
Description: A Physiologically-based Pharmacokinetic (“PBPK”) model based on prior in vitro and in vivo information on the metabolism and kinetics of maribavir was constructed with the aim of predicting plasma concentration-time profiles of maribavir and to evaluate the likely impact of coadministration of CYP3A4 inhibitors and inducers on the kinetics of maribavir in healthy subjects.
A combination of in vitro data and clinical pharmacokinetic data obtained following a single dose of 400 mg maribavir were used to develop the PBPK model. […] The Cmax was marginally under predicted, which could be expected because the PBPK model was optimized for better prediction of C12h.
(§1) Distribution models evaluated included a full PBPK model and a minimal PBPK model, both of which consider liver and intestinal metabolism. Mass balance data from the [^14C] ADME study indicated a fraction absorbed of 0.83 or greater following oral administration of 400 mg dose of maribavir. Absorption models evaluated included a simple first-order absorption model and a more mechanistic “Advanced Dissolution Absorption and Metabolism” (ADAM) model.
A comparison of observed and predicted plasma concentrations of maribavir following single oral doses of 800 mg and 1600 mg to healthy patients […]. […] The simulated and observed maribavir concentrations were in reasonable agreement.
A comparison of observed and predicted plasma concentrations of maribavir following multiple oral 400 mg BID doses of maribavir was performed. […] The simulated and observed maribavir concentrations were in reasonable agreement.

[2] = parameters: species or system human; settings: human, in vivo
Excerpt: Accumulated data have shown that maribavir is metabolized primarily in the liver, and renal clearance is a minor route (representing less than 5 percent). VP 44469 (N-dealkylated Maribavir) was the principal metabolite of maribavir in both urine and feces. In plasma, unchanged maribavir and VP 44469 represented approximately 69% and 9.8% of total radioactivity, respectively. The hepatic metabolism of maribavir was primarily driven by cytochrome P450s. CYP3A4 and CYP1A2 were responsible for 70 to 85% and 15 to 30% of the CYP-driven pathways, respectively. Glucuronidation accounted for less than 20% of metabolism.
as §1

[3] = target: CYP2C19 (Homo sapiens, UniProt P33261); assay: Time-dependent CYP inhibition (IC50 shift, 30 minute pre-incubation with HLM +/- NADPH); format: in vitro ADME; parameters: from tissue; settings: up to 100 μM
Description: (§2) Time-dependent inhibition (TDI) potentials for various CYP enzymes were evaluated by a 30 minute pre-incubation of maribavir with HLM in the presence and absence of nicotinamide-adenine dinucleotide […] (NADPH) followed by a CYP enzyme activity assay.

[4] = target: T1, CYP1A2 (Homo sapiens, UniProt P05177); assay: as above; format: in vitro ADME; parameters: from tissue; settings: up to 100 μM
T1 sequence (P05177 1-516): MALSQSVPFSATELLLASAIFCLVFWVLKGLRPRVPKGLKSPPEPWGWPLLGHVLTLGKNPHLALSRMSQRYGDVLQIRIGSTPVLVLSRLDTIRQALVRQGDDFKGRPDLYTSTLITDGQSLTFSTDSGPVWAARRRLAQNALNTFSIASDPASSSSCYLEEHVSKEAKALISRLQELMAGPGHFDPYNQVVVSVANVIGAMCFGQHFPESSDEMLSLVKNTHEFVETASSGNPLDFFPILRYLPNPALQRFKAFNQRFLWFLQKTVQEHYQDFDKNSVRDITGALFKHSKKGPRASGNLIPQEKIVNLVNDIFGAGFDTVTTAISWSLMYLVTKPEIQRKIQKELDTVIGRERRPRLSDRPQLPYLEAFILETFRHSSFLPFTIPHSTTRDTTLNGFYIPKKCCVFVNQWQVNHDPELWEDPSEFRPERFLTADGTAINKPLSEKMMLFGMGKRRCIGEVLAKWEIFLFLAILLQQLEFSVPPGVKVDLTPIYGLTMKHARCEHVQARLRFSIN
Description: as §2

[5] = target: T2, CYP2C8 (Homo sapiens, UniProt P10632); assay: as above; format: in vitro ADME; parameters: from tissue; settings: up to 100 μM
T2 sequence (P10632 1-490): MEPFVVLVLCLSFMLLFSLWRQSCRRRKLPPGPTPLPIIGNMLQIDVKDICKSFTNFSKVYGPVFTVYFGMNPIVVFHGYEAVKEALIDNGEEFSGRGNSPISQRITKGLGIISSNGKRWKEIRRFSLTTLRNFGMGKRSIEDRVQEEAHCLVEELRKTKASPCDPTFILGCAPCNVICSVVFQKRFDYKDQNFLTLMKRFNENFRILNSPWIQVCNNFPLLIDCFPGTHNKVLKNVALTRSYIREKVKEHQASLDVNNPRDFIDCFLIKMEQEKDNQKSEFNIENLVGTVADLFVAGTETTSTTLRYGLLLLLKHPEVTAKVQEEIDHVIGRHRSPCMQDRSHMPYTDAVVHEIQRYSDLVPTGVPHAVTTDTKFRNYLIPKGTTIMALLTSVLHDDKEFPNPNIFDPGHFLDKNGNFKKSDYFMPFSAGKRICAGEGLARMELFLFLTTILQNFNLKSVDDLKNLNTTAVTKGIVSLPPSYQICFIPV
Description: as §2

[6] = target: CYP2D6 (Homo sapiens, UniProt P10635); assay: as above; format: in vitro ADME; parameters: from tissue; settings: up to 100 μM
Description: as §2

[7] = target: CYP2C9 (Homo sapiens, UniProt P11712); assay: as above; format: in vitro ADME; parameters: from tissue; settings: up to 100 μM
Description: as §2

[8] = tested on: CYP3A4 mRNA; assay: CYP induction (mRNA, qPCR) in fresh human hepatocytes; format: in vitro ADME
Description: Fresh human hepatocytes were treated with culture medium with maribavir concentrations of 36 μM, 144 μM, and 480 μM.
Positive controls were 50 μM omeprazole (CYP1A2), 1 mM phenobarbital (CYP2B6), and 50 μM rifampicin (CYP3A).
Incubation was conducted at 37° C. for 72 hours, with daily replacement of medium with compound. Total RNA was isolated, and cDNA was synthesized from up to 1 μg of total isolated RNA. Analysis of CYP expression was performed using qPCR with CYP-specific probes.
Half maximal effective concentration (EC50) and maximum effect (Emax) values for CYP3A4 mRNA induction were further determined by a concentration-response curve in three donors with maribavir at a concentration between 0-100 μM.

[9] = maribavir 400 mg BID alone (Table 7A)
[10] = maribavir 400 mg BID, 5 doses (Table 5A)
[11] = maribavir 400 mg single dose alone (Table 6A)
[12] = maribavir 400 mg single oral dose
[13] = maribavir 800 mg single oral dose
[14] = maribavir 1600 mg single oral dose

Chain of CYP2C19 (P33261 whole entry): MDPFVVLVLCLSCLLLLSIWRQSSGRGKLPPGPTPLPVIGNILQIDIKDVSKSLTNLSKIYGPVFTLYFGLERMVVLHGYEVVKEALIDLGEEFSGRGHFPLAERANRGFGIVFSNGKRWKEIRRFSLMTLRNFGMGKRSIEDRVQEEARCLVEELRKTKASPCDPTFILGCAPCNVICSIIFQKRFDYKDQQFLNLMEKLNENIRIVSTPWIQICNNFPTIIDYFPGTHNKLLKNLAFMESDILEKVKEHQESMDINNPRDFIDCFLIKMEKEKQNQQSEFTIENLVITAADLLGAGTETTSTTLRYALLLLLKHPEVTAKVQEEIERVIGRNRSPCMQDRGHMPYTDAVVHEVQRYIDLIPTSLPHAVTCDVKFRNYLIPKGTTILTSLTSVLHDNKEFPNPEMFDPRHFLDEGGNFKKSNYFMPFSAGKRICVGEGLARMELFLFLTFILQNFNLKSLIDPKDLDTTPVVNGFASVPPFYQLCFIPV
Chain of CYP2D6 (P10635 whole entry): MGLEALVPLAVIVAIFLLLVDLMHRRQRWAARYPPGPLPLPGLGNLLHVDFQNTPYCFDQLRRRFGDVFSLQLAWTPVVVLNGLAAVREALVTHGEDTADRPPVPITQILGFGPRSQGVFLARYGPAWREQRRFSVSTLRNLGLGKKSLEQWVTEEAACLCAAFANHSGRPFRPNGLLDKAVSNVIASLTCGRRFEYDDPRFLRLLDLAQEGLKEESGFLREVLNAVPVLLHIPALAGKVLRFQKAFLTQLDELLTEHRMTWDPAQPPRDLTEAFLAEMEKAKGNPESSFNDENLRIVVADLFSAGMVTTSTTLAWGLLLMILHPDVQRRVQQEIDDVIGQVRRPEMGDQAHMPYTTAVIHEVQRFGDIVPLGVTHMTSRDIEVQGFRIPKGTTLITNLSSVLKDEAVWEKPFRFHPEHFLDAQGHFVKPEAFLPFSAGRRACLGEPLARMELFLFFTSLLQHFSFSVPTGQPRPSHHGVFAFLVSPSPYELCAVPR
Chain of CYP2C9 (P11712 whole entry): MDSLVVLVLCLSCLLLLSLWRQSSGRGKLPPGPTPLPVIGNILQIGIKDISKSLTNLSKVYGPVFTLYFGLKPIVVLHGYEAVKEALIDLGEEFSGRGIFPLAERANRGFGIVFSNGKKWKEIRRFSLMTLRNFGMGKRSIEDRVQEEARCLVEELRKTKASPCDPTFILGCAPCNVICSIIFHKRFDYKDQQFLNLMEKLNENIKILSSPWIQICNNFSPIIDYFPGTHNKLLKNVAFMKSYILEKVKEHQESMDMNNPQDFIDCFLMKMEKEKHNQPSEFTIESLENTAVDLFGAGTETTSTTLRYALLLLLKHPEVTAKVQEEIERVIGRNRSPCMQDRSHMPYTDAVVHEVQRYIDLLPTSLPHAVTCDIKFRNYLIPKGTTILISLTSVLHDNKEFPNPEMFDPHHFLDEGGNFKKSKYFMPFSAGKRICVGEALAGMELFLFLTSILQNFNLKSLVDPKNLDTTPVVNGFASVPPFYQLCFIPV

CC(C)Nc1nc2cc(Cl)c(Cl)cc2n1[C@H]1O[C@@H](CO)[C@H](O)[C@@H]1O [maribavir, (2S,3S,4R,5S)-2-(5,6-dichloro-2-(isopropylamino)-1H-benzo[d]imidazol-1-yl)-5-(hydroxymethyl)tetrahydrofuran-3,4-diol]
AUC(0-12 h), RATIO GEOMETRIC MEAN PREDICTED/OBSERVED [1, 9]: 1.03
AUC(0-12 h), RATIO MEAN PREDICTED/OBSERVED [1, 9]: 1.06
C12 h, RATIO GEOMETRIC MEAN PREDICTED/OBSERVED [1, 9]: 0.92
C12 h, RATIO MEAN PREDICTED/OBSERVED [1, 9]: 1.14
Cmax, RATIO GEOMETRIC MEAN PREDICTED/OBSERVED [1, 9]: 0.85
Cmax, RATIO MEAN PREDICTED/OBSERVED [1, 9]: 0.84
AUC(0-∞), RATIO MEAN PREDICTED/OBSERVED [1, 10]: 1.07
C12 h, RATIO MEAN PREDICTED/OBSERVED [1, 10]: 1.18
Cmax, RATIO MEAN PREDICTED/OBSERVED [1, 10]: 0.85
AUC(0-∞), GEOMEAN RATIO PREDICTED/OBSERVED [1, 11]: 0.78
AUC(0-∞), MEAN RATIO PREDICTED/OBSERVED [1, 11]: 0.79
Cmax, GEOMEAN RATIO PREDICTED/OBSERVED [1, 11]: 0.61
Cmax, MEAN RATIO PREDICTED/OBSERVED [1, 11]: 0.62
AUC(0-∞), RATIO MEAN PREDICTED/OBSERVED [1, 12]: 1.00
Cmax, RATIO MEAN PREDICTED/OBSERVED [1, 12]: 0.72
AUC(0-∞), RATIO MEAN PREDICTED/OBSERVED [1, 13]: 1.07
Cmax, RATIO MEAN PREDICTED/OBSERVED [1, 13]: 0.91
AUC(0-∞), RATIO MEAN PREDICTED/OBSERVED [1, 14]: 0.90
Cmax, RATIO MEAN PREDICTED/OBSERVED [1, 14]: 0.99
contribution of CYP1A2 to the CYP-driven pathways [2]: 15-30%
contribution of CYP3A4 to the CYP-driven pathways [2]: 70-85%
share of metabolism by glucuronidation [2]: less than 20%
share of total radioactivity in plasma [2]: approximately 69%
time-dependent inhibition (TDI) of CYP2C19 [3]: not a time-dependent inhibitor; also recorded: unlikely a TDI
time-dependent inhibition (TDI) of CYP1A2 [4]: not a time-dependent inhibitor; also recorded: unlikely a TDI
time-dependent inhibition (TDI) of CYP2C8 [5]: not a time-dependent inhibitor; also recorded: unlikely a TDI
time-dependent inhibition (TDI) of CYP2D6 [6]: not a time-dependent inhibitor; also recorded: unlikely a TDI
time-dependent inhibition (TDI) of CYP2C9 [7]: not a time-dependent inhibitor; also recorded: unlikely a TDI
fold increase in CYP3A4 mRNA induction ([8]; 36 μM maribavir, human hepatocytes): greater than 14 fold
EC50 at 72 h ([8]; human): > 5 µM
CYP3A4 mRNA induction, % of positive control (rifampicin) levels ([8]; human, hepatocytes, 72 h, 36 μM): greater than 30%
